{"source": "patent US20160279252A1", "about": "“COMPOSITIONS FOR INDUCING IMMUNE TOLERANCE TO COAGULATION FACTOR PROTEINS” (BAYER HEALTHCARE LLC, priority 2013, published 2016)", "key": {"murine CD22": {"target": "T1, murine CD22 (Mus musculus, UniProt P35329)", "T1 sequence (P35329 22-868)": "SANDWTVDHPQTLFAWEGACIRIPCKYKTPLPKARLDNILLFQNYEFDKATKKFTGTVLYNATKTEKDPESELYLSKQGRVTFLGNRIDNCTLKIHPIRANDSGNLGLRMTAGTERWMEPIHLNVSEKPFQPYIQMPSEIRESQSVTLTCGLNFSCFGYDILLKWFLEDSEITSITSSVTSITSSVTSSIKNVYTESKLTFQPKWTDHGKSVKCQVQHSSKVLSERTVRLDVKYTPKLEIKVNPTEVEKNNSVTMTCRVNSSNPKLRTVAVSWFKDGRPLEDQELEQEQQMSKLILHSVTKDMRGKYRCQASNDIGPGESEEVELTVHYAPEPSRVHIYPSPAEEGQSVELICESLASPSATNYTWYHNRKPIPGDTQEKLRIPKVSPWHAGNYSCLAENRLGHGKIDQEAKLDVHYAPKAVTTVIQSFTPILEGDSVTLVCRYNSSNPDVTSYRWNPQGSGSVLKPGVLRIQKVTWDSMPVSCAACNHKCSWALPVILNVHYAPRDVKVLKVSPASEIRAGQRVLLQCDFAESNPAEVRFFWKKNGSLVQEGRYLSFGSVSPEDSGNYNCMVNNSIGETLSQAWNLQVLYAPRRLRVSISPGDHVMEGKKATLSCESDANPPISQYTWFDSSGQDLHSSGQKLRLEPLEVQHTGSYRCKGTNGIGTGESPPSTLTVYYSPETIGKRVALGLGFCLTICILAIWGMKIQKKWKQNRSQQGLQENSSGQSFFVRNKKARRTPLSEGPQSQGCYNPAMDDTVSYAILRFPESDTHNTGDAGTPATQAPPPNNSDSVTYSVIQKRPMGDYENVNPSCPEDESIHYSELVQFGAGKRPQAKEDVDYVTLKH", "details": "vs NeuGcα2-6Galβ1-4GlcNAc; cited from earlier work"}, "Siglec-G": {"target": "T2, Siglec-G (Mus musculus, UniProt Q80ZE3)", "T2 sequence (Q80ZE3 18-688)": "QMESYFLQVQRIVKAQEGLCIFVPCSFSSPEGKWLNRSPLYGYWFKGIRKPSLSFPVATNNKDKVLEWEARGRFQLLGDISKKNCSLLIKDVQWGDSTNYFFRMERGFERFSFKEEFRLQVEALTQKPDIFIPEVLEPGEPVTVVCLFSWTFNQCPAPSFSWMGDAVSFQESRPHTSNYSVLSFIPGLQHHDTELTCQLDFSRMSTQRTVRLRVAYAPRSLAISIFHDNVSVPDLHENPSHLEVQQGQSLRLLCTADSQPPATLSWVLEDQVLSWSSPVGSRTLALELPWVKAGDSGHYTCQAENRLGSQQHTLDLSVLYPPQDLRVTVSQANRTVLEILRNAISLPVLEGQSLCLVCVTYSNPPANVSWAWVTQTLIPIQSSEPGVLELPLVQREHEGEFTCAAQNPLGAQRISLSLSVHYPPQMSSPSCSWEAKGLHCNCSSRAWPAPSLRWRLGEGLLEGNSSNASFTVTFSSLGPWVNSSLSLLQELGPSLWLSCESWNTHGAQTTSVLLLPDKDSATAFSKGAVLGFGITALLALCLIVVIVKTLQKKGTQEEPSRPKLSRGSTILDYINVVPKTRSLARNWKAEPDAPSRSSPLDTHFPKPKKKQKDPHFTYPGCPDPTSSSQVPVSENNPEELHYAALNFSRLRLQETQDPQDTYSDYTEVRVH", "details": "cited from earlier work"}, "C57BL/6J mice": {"tested_on": "C57BL/6J mice", "test": "Tolerization of C57BL/6J mice to HEL (anti-HEL titers)", "format": "in vivo, mouse", "details": "for effect of ligand amount on liposomes on antibody production: HEL liposomes with varying ligand, day 44 after two challenges", "protocol": "Immunization and Blood Collection: Whole blood (50 μL) was collected from mice via a retro-orbital bleed using heparinized capillary tubes (Fisher). Blood was centrifuged (17,000 rcf, 1 min) to collect the serum. Serum was either used immediately for ELISAs or stored at −20° C. […] Liposomes and cells were delivered via the lateral tail vein in a volume of 200 μL. For studies involving a challenge with soluble (non-liposomal) antigen, mice were injected with 200 μg of HEL dissolved in HBSS and delivered intraperitoneally or 1 μg of FVIII delivered intravenously.\nELISAs: Maxisorp plates (96-well; Thermo Fisher) were coated with 50 μL/well of the relevant protein at a concentration of between 10-100 μg/mL in PBS and left overnight at 4° C. […] The following day, the plates were washed twice in TBS-T (Tris-buffered saline blocked containing 0.1% Tween 20) and blocked for 1 hr at RT with 100 μL of assay diluent (TBS-T with 1% BSA). Washing of the plates was accomplished by submerging the entire plate into a basin of wash buffer the appropriate number of times. Serum was initially diluted between 20-10,000-fold and diluted in 2-3 fold serial dilutions eight times on the ELISA plate. Plates were incubated with serum (50 μL/well) for 1 hr at 37° C. after which the plates were washed four times in TBS-T. HRP-conjugated secondary antibodies (Santa Cruz Biotechnologies) were diluted 2000-fold in assay diluent and 50 μL was added to each well. After incubation for 1 hr at 37° C., the plates were washed five times in TBS-T. To develop the plate, 75 μL/well of TMB substrate (Thermo Fisher) was added. The plate was incubated at RT for 15 minutes and then 75 μL/well of 2N H2504 was added to quench the reaction. Plates were read at 450 nm using a spectrophotometer (Molecular Devices). The titer was defined as the endpoint titer, which was the dilution of serum that produced an absorbance 2-fold above background.\nLiposomes: All liposomes were composed of a 60:35:5 molar ratio of distearoyl phosphatidylcholine (DSPC; Avanti Polar Lipids), cholesterol (Sigma), and pegylated lipids. […]"}, "human CD22": {"target": "human CD22 (Homo sapiens, UniProt P20273)", "sequence (P20273 20-847)": "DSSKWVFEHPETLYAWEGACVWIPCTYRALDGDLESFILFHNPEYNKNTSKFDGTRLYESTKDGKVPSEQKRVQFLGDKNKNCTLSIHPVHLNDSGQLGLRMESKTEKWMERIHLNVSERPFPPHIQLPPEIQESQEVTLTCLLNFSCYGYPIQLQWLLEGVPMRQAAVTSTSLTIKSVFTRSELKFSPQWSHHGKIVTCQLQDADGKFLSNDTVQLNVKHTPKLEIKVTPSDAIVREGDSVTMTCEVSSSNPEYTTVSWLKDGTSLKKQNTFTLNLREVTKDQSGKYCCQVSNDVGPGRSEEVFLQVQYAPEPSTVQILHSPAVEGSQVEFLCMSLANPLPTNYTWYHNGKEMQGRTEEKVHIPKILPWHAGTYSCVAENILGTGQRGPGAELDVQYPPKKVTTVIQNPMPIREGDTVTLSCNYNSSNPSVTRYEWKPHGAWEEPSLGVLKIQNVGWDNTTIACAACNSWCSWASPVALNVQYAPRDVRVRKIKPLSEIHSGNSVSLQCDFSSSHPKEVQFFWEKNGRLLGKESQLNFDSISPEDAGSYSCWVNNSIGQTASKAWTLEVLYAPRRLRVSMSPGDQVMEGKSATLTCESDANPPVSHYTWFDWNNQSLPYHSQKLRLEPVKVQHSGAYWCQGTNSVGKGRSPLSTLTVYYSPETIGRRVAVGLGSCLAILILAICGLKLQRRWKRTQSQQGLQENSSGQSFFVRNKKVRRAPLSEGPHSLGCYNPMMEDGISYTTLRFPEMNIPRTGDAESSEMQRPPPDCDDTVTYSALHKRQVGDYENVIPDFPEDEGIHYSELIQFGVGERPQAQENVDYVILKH", "details": "cited from earlier work"}, "FVIII deficient plasma": {"tested_on": "FVIII deficient plasma", "test": "Coagulation assay (one-stage aPTT clotting FVIII:C)", "format": "biochemical", "details": "PEGylated with PEGs 6 kD to 64 kD, assayed without purification", "method": "COAGULATION ASSAY. The clotting FVIII:C test method is a one-stage assay based upon the activated partial thromboplastin time (aPTT). FVIII acts as a cofactor in the presence of Factor IXa, calcium, and phospholipid in the enzymatic conversion of Factor X to Xa. In this assay, the diluted test samples are incubated at 37° C. with a mixture of FVIII deficient plasma substrate and aPTT reagent. Calcium chloride is added to the incubated mixture and clotting is initiated. An inverse relationship exists between the time (seconds) it takes for a clot to form and logarithm of the concentration of FVIII:C. Activity levels for unknown samples are interpolated by comparing the clotting times of various dilutions of test material with a curve constructed from a series of dilutions of standard material of known activity and are reported in International Units per mL (IU/mL).\nEFFECT OF PEG SIZE ON ACTIVITY. To test whether PEG sizes have an effect on both coagulation and chromogenic activities of FVIII upon PEGylation, purified full-length FVIII, PEG2, PEG6, and PEG14 were reduced by TCEP followed by reductant removal and reaction with a buffer control or PEGs ranging from 6 kD to 64 kD. The resulting PEGylated FVIII was directly assayed without removal of excess PEG or unPEGylated FVIII."}}}
{"molecule": "9-N-biphenylacetyl-NeuGcα2-6Galβ1-4GlcNAc [^BPANeuGc]", "values": [{"measurement": "affinity for murine CD22 relative to natural ligand", "setting": "murine CD22", "result": 200, "unit": "fold"}, {"measurement": "cross-reactivity with Siglec-G", "setting": "Siglec-G", "result": "only a small degree of cross-reactivity"}, {"measurement": "effect of ligand amount on liposomes on antibody production", "setting": "C57BL/6J mice", "result": "dose-dependent effect on antibody production"}, {"measurement": "difference in EC50 between the two ligands", "setting": "C57BL/6J mice; ^BPANeuGc vs NeuGc on tolerogenic HEL liposomes", "result": "two orders of magnitude difference"}]}
{"molecule": "9-N-biphenylcarboxyl-NeuAca2-6Galβ3-4GlcNAc [^BPCNeuAc]", "values": [{"measurement": "affinity for human CD22", "setting": "human CD22", "result": "high affinity"}]}
{"molecule": "CC(=O)NC1C(O)OC(CO)C(OC2OC(COC3(C(=O)O)CC(O)C(NC(=O)CO)C(C(O)C(O)CO)O3)C(O)C(O)C2O)C1O", "note": "(stereo not shown) [NeuGc, NeuGcα2-6Galβ1-4GlcNAc]", "values": [{"measurement": "effect of ligand amount on liposomes on antibody production", "setting": "C57BL/6J mice", "result": "dose-dependent effect on antibody production"}]}
{"molecule": "PEG6", "values": [{"measurement": "coagulation activity upon PEGylation", "setting": "FVIII deficient plasma", "result": "dramatic losses of coagulation activity"}]}
